Measured values taken from ChEMBL document CHEMBL1201862, “PubChem BioAssay data set” (2004).
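Following 48 hours of exposure in 96-well plates, responses at five concentrations were used to interpolate endpoints linearly. GI50 is the concentration that inhibits growth by half.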 The source made the active and inactive calls. Rule as the data show it: active = GI50 up to about 1.1 µM and inactive = higher.

Columns and labels:
Test in all cases: DTP human tumour cell line panel, 48 h
HCC 2998 = tested on: HCC 2998
U-251 = tested on: U-251
HL-60 = tested on: HL-60
EKVX = tested on: EKVX
NCI-H460 = tested on: NCI-H460
SNB-75 = tested on: SNB-75
NCI-H522 = tested on: NCI-H522
OVCAR-5 = tested on: OVCAR-5
OVCAR-8 = tested on: OVCAR-8
CAKI-1 = tested on: CAKI-1
SN12C = tested on: SN12C
CCRF-CEM = tested on: CCRF-CEM
A549 = tested on: A549
SK-MEL-2 = tested on: SK-MEL-2
SF-539 = tested on: SF-539
LXFL 529 = tested on: LXFL 529
Malme-3M = tested on: Malme-3M
MDA-N = tested on: MDA-N
T47D = tested on: T47D
MDA-MB-435 = tested on: MDA-MB-435

Compound	GI50 (HCC 2998)	GI50 (U-251)	GI50 (HL-60)	GI50 (EKVX)	GI50 (NCI-H460)	GI50 (SNB-75)	GI50 (NCI-H522)	GI50 (OVCAR-5)	GI50 (OVCAR-8)	GI50 (CAKI-1)	GI50 (SN12C)	GI50 (CCRF-CEM)	GI50 (A549)	GI50 (SK-MEL-2)	GI50 (SF-539)	GI50 (LXFL 529)	GI50 (Malme-3M)	GI50 (MDA-N)	GI50 (T47D)	GI50 (MDA-MB-435)
CC(=O)SCCC1c2[nH]c3ccccc3c2CCN1O (stereo unspecified)	85.1 µM (inactive)	> 100 µM (inactive)	36.6 µM (inactive)	> 100 µM (inactive)	82.8 µM (inactive)	18.7 µM (inactive)	23.9 µM (inactive)	71.4 µM (inactive)	> 100 µM (inactive)	59.7 µM (inactive)	> 100 µM (inactive)	31.8 µM (inactive)	> 100 µM (inactive)	> 100 µM (inactive)	> 100 µM (inactive)	56.4 µM (inactive)	> 100 µM (inactive)	–	–	–
NC1=NN(c2ccccc2)C(=O)C1C(=O)C(=O)NC1C2CC3CC(C2)CC1C3 (stereo unspecified)	> 100 µM (inactive)	> 100 µM (inactive)	> 100 µM (inactive)	> 100 µM (inactive)	> 100 µM (inactive)	–	–	> 100 µM (inactive)	> 100 µM (inactive)	–	> 100 µM (inactive)	> 100 µM (inactive)	> 100 µM (inactive)	> 100 µM (inactive)	> 100 µM (inactive)	66.1 µM (inactive)	> 100 µM (inactive)	–	–	–
CC(=O)/C(=C\c1ccccc1O)C(=O)Nc1ccccc1C	15.7 µM (inactive)	8.85 µM (inactive)	9.64 µM (inactive)	36 µM (inactive)	23.7 µM (inactive)	–	> 10 µM (inactive)	21.2 µM (inactive)	31.7 µM (inactive)	16 µM (inactive)	> 10 µM (inactive)	14.3 µM (inactive)	20.5 µM (inactive)	18.9 µM (inactive)	18.5 µM (inactive)	22.3 µM (inactive)	17.5 µM (inactive)	–	–	–
O=S1(=O)CCCS(=O)(=O)C(c2ccccc2)=C1c1ccccc1	18.5 µM (inactive)	92.7 µM (inactive)	18.6 µM (inactive)	> 100 µM (inactive)	47.3 µM (inactive)	27.5 µM (inactive)	27.5 µM (inactive)	> 100 µM (inactive)	91.6 µM (inactive)	76.7 µM (inactive)	29.4 µM (inactive)	32.1 µM (inactive)	42.3 µM (inactive)	42.6 µM (inactive)	> 100 µM (inactive)	29.6 µM (inactive)	34.2 µM (inactive)	–	–	–
Cn1c(=O)c(C(=O)NC(=O)OCc2ccccc2)cn(CCSCCOC(=O)NCCCCCCNC(=O)OCCSCCn2cc(C(=O)NC(=O)OCc3ccccc3)c(=O)n(C)c2=O)c1=O	> 100 µM (inactive)	63.4 µM (inactive)	> 100 µM (inactive)	> 100 µM (inactive)	> 100 µM (inactive)	17.8 µM (inactive)	> 100 µM (inactive)	> 100 µM (inactive)	> 100 µM (inactive)	–	> 100 µM (inactive)	> 100 µM (inactive)	> 100 µM (inactive)	> 100 µM (inactive)	32.5 µM (inactive)	> 100 µM (inactive)	> 100 µM (inactive)	–	–	–
COc1ccccc1-c1cc(O)c2cc3c(cc2n1)OCO3	40.1 µM (inactive)	> 100 µM (inactive)	19.5 µM (inactive)	> 100 µM (inactive)	30.3 µM (inactive)	22.1 µM (inactive)	–	–	28.3 µM (inactive)	–	45.2 µM (inactive)	18.7 µM (inactive)	35.6 µM (inactive)	40.8 µM (inactive)	25.1 µM (inactive)	48.9 µM (inactive)	6.82 µM (inactive)	–	–	–
O=[PH](O)c1cccnc1	> 100 µM (inactive)	> 100 µM (inactive)	> 100 µM (inactive)	> 100 µM (inactive)	> 100 µM (inactive)	> 100 µM (inactive)	> 100 µM (inactive)	> 100 µM (inactive)	> 100 µM (inactive)	> 100 µM (inactive)	> 100 µM (inactive)	> 100 µM (inactive)	> 100 µM (inactive)	–	> 100 µM (inactive)	> 100 µM (inactive)	> 100 µM (inactive)	–	–	–
C/C(=N\NC(=O)CC(=O)N(C(=O)c1ccc(Cl)cc1)c1ccc(C)cc1)c1ccccc1O	–	19.6 µM (inactive)	–	6.79 µM (inactive)	21.4 µM (inactive)	18.2 µM (inactive)	36.6 µM (inactive)	> 100 µM (inactive)	18.7 µM (inactive)	64 µM (inactive)	> 100 µM (inactive)	5.45 µM (inactive)	35.6 µM (inactive)	> 100 µM (inactive)	43.4 µM (inactive)	> 100 µM (inactive)	> 100 µM (inactive)	–	–	–
CC1(Br)C(=O)NC(=O)N([C@H]2C[C@H](O)[C@@H](CO)O2)C1N=[N+]=[N-] (stereo partly specified)	> 100 µM (inactive)	> 100 µM (inactive)	> 100 µM (inactive)	> 100 µM (inactive)	> 100 µM (inactive)	> 100 µM (inactive)	> 100 µM (inactive)	> 76.2 µM (inactive)	> 100 µM (inactive)	> 100 µM (inactive)	> 100 µM (inactive)	> 100 µM (inactive)	> 100 µM (inactive)	> 100 µM (inactive)	> 100 µM (inactive)	> 100 µM (inactive)	> 100 µM (inactive)	–	–	–
CN1CC[C@]2(C)c3c(O)cccc3CC3CCCC1C32C (stereo partly specified)	15.8 µM (inactive)	> 100 µM (inactive)	96.2 µM (inactive)	> 100 µM (inactive)	> 100 µM (inactive)	45.4 µM (inactive)	> 100 µM (inactive)	> 100 µM (inactive)	> 100 µM (inactive)	> 100 µM (inactive)	> 100 µM (inactive)	> 100 µM (inactive)	> 100 µM (inactive)	> 100 µM (inactive)	> 100 µM (inactive)	> 100 µM (inactive)	> 100 µM (inactive)	–	–	–
COc1cc(C(C)O)c[n+](CCc2c[nH]c3ccccc23)c1 (stereo unspecified)	> 100 µM (inactive)	> 100 µM (inactive)	> 100 µM (inactive)	48.3 µM (inactive)	> 100 µM (inactive)	89.9 µM (inactive)	83.9 µM (inactive)	–	> 100 µM (inactive)	> 100 µM (inactive)	> 100 µM (inactive)	> 100 µM (inactive)	> 100 µM (inactive)	> 100 µM (inactive)	> 100 µM (inactive)	> 100 µM (inactive)	> 100 µM (inactive)	–	–	–
CN(C)Cc1[nH]c2ccccc2c1C(=O)c1ccccc1	99.1 µM (inactive)	> 100 µM (inactive)	86.9 µM (inactive)	–	> 100 µM (inactive)	21.9 µM (inactive)	> 100 µM (inactive)	> 100 µM (inactive)	> 100 µM (inactive)	> 100 µM (inactive)	–	> 100 µM (inactive)	> 100 µM (inactive)	> 100 µM (inactive)	> 100 µM (inactive)	> 100 µM (inactive)	> 100 µM (inactive)	–	–	–
N#Cc1ccc(C2SCc3nc4ccccc4n32)cc1 (stereo unspecified)	> 100 µM (inactive)	> 100 µM (inactive)	31.3 µM (inactive)	69.3 µM (inactive)	> 100 µM (inactive)	38.5 µM (inactive)	12.3 µM (inactive)	–	76.9 µM (inactive)	> 100 µM (inactive)	75 µM (inactive)	> 100 µM (inactive)	81.8 µM (inactive)	> 100 µM (inactive)	84.7 µM (inactive)	45.4 µM (inactive)	> 100 µM (inactive)	–	–	–
Cn1nc(-c2ccccc2)c2c(/C=C/c3ccc(Cl)cc3)onc2c1=O	–	33.7 µM (inactive)	–	> 100 µM (inactive)	> 100 µM (inactive)	–	13.3 µM (inactive)	–	16.7 µM (inactive)	> 10 µM (inactive)	17.1 µM (inactive)	27.7 µM (inactive)	8.95 µM (inactive)	–	22.6 µM (inactive)	39.9 µM (inactive)	–	–	–	–
CCOCC(=O)N[C@H]1CCc2cc(OC)c(OC)c(OC)c2-c2ccc(SC)c(=O)cc21	< 0.01 µM (active)	< 0.01 µM (active)	0.0217 µM (active)	7.94 µM (inactive)	< 0.01 µM (active)	0.0102 µM (active)	< 0.01 µM (active)	0.398 µM (active)	< 0.01 µM (active)	< 0.01 µM (active)	< 0.01 µM (active)	< 0.0182 µM (active)	< 0.01 µM (active)	< 0.01 µM (active)	< 0.01 µM (active)	< 0.01 µM (active)	< 0.01 µM (active)	< 0.01 µM (active)	> 100 µM (inactive)	< 0.01 µM (active)
CC(=O)OCC1OC(n2c(S)nc(-c3ccccc3)c(C#N)c2=O)C(OC(C)=O)C(OC(C)=O)C1OC(C)=O (stereo unspecified)	> 100 µM (inactive)	> 100 µM (inactive)	> 100 µM (inactive)	> 100 µM (inactive)	> 100 µM (inactive)	98.9 µM (inactive)	> 100 µM (inactive)	> 100 µM (inactive)	> 100 µM (inactive)	> 100 µM (inactive)	> 100 µM (inactive)	> 100 µM (inactive)	> 100 µM (inactive)	> 100 µM (inactive)	> 100 µM (inactive)	–	> 100 µM (inactive)	> 100 µM (inactive)	> 100 µM (inactive)	> 100 µM (inactive)
CC1=NN(C(=O)c2ccccc2O)C(=O)/C1=C/c1c(O)ccc2ccccc12	12.9 µM (inactive)	0.982 µM (active)	0.299 µM (active)	0.713 µM (active)	0.676 µM (active)	2.42 µM (inactive)	0.839 µM (active)	4.11 µM (inactive)	1.01 µM (active)	1.32 µM (inactive)	1.22 µM (inactive)	0.312 µM (active)	2.06 µM (inactive)	1.14 µM (inactive)	0.804 µM (active)	1.72 µM (inactive)	1.52 µM (inactive)	5.2 µM (inactive)	41.1 µM (inactive)	4.94 µM (inactive)
